Laboratory results: paper PMC10265666, “Lung SPLUNC1 Peptide Derivatives in the Lipid Membrane Headgroup Kill Gram-Negative Planktonic and Biofilm Bacteria” (Biomacromolecules, 2023)
Values joined by “and” are separate entries in the source; they are usually repeats but may differ in a detail not shown here. Equal values may be shown once. No end group written: not given here.

How the values were obtained:
HBE cells = format: cell-based
Method: (§1) page 4: Additional toxicity studies at 16 hours incubation with peptides Figure S3. Figure S4. […]

THP-1 cells = format: cell-based
Method: as §1

[1] = Circular dichroism secondary structure in G(−)IM ULVs; format: physicochemical; details: 10 μM peptide, 15 mM PBS pH 7, 37 °C
Method: Unilamellar vesicles (ULVs) of ∼600 Å diameter were prepared using an Avanti extruder: 200 μL of 20 mg/ml G(−)IM lipid in 15 mM PBS was extruded 21 times through Nucleopore filters of size 500 Å using 0.2 mL Hamilton syringes in the Avanti extruder. The final concentration of G(−)IM lipid in the ULVs was determined gravimetrically to be 15 mg/ml. Concentrated ULVs were added to 3 mL of 10 μM peptide in 15 mM PBS at pH 7 to create lipid/peptide molar ratios between 0:1 and 70:1. The samples remained at room temperature for ∼16 h before the CD measurement. Data were collected in 3 mL quartz cuvettes using a Jasco 1500 CD spectrophotometer at 37 °C in the Center for Nucleic Acids Science and Technology at Carnegie Mellon University. The samples were scanned from 200 to 240 nm 20 times, and the ellipticity (ϵ) results were averaged. Temperature was controlled at 37 °C via a Peltier element and water circulation through the sample compartment. Nitrogen gas was used at a flow rate between 20 and 25 ft^3/h (CFH). The parameters for scanning were: speed 100 nm/min, step size 1.0 nm, response time 1 second, bandwidth 1 nm, and sensitivity of 20 mdeg. OriginPro 2019 (OriginLab, Northampton, MA) was used to carry out a linear least-squares fit of the smoothed ellipticity traces to four secondary structural motifs representing α-helix, β-sheet, β-turn, and random coil.[20] This analysis gives a percentage match of each of the secondary structural motifs to the total sample ellipticity. Data were finally converted to mean residue ellipticity, taking into account the peptide concentration (10 μMolar) and number of amino acids (N), using the equation: MRE = (10^4/N)ϵ deg cm^2/dmol.

[2] = Circular dichroism secondary structure in Euk33 ULVs; format: physicochemical; details: 10 μM peptide, 15 mM PBS pH 7, 37 °C
[3] = test system: eukaryotic cells vs bacteria; assay: Therapeutic index (eukaryotic cell kill concentration / bacterial kill concentration); format: cell-based
Method: But more important than cytotoxicity is the therapeutic index (TI), which is the concentration at which ≥90% of eukaryotic cells are killed divided by the concentration at which ≥90% of bacteria are killed. For A4-153, this TI value is an estimated ≈ 128 μM/16 μM ≈ 8. TI for A4-157 is an estimated 128 μM/24 μM ≈ 5, and the TI for A4-183 is an estimated 64 μM/20 μM ≈ 3.

[4] = G(−)IM/peptide molar ratio 10:1
[5] = G(−)IM/peptide molar ratio 15:1
[6] = G(−)IM/peptide molar ratio 20:1
[7] = G(−)IM/peptide molar ratio 25:1
[8] = G(−)IM/peptide molar ratio 30:1
[9] = G(−)IM/peptide molar ratio 50:1

FKKFLKKFKGWLGGLWGK [A4-183]
cytotoxicity (HBE cells): greatest cytotoxicity at high concentrations | cytotoxicity (THP-1 cells): less toxic in THP-1 cells than in the other cell types | Random ([1]; G(−)IM/peptide molar ratio 0:1): 65.9% | α-helix ([1]; G(−)IM/peptide molar ratio 0:1): 3.1% | β-sheet ([1]; G(−)IM/peptide molar ratio 0:1): 31.0% | β-turn ([1]; G(−)IM/peptide molar ratio 0:1): 0% | Random ([1]; G(−)IM/peptide molar ratio 1:1): 64.1% | α-helix ([1]; G(−)IM/peptide molar ratio 1:1): 4.7% | β-sheet ([1]; G(−)IM/peptide molar ratio 1:1): 31.2% | β-turn ([1]; G(−)IM/peptide molar ratio 1:1): 0% | Random ([1]; G(−)IM/peptide molar ratio 5:1): 59.2% | α-helix ([1]; G(−)IM/peptide molar ratio 5:1): 22.6% | β-sheet ([1]; G(−)IM/peptide molar ratio 5:1): 18.2% | β-turn ([1]; G(−)IM/peptide molar ratio 5:1): 0% | Random [1, 4]: 29.1% | α-helix [1, 4]: 44.4% | β-sheet [1, 4]: 14.9% | β-turn [1, 4]: 11.6% | Random [1, 5]: 0.4% | α-helix [1, 5]: 63.0% | β-sheet [1, 5]: 14.1% | β-turn [1, 5]: 22.5% | Random [1, 6]: 12.4% | α-helix [1, 6]: 66.7% | β-sheet [1, 6]: 8.8% | β-turn [1, 6]: 12.1% | Random [1, 7]: 11.7% | α-helix [1, 7]: 64.9% | β-sheet [1, 7]: 12.5% | β-turn [1, 7]: 10.9% | Random [1, 8]: 13.0% | α-helix [1, 8]: 69.4% | β-sheet [1, 8]: 8.7% | β-turn [1, 8]: 8.9% | Random [1, 9]: 18.2% | α-helix [1, 9]: 63.6% | β-sheet [1, 9]: 9.1% | β-turn [1, 9]: 9.1% | Random ([2]; Euk33/peptide molar ratio 0:1): 65.9% | α-helix ([2]; Euk33/peptide molar ratio 0:1): 3.1% | β-sheet ([2]; Euk33/peptide molar ratio 0:1): 31.0% | β-turn ([2]; Euk33/peptide molar ratio 0:1): 0% | Random ([2]; Euk33/peptide molar ratio 5:1): 64.1% | α-helix ([2]; Euk33/peptide molar ratio 5:1): 8.6% | β-sheet ([2]; Euk33/peptide molar ratio 5:1): 27.3% | β-turn ([2]; Euk33/peptide molar ratio 5:1): 0% | Random ([2]; Euk33/peptide molar ratio 10:1): 67.8% | α-helix ([2]; Euk33/peptide molar ratio 10:1): 13.0% | β-sheet ([2]; Euk33/peptide molar ratio 10:1): 19.2% | β-turn ([2]; Euk33/peptide molar ratio 10:1): 0% | Random ([2]; Euk33/peptide molar ratio 20:1): 61.2% | α-helix ([2]; Euk33/peptide molar ratio 20:1): 10.4% | β-sheet ([2]; Euk33/peptide molar ratio 20:1): 28.4% | β-turn ([2]; Euk33/peptide molar ratio 20:1): 0% | Random ([2]; Euk33/peptide molar ratio 30:1): 60.0% | α-helix ([2]; Euk33/peptide molar ratio 30:1): 13.6% and 14% | β-sheet ([2]; Euk33/peptide molar ratio 30:1): 26.4% | β-turn ([2]; Euk33/peptide molar ratio 30:1): 0% | Random ([2]; Euk33/peptide molar ratio 70:1): 37.4% | α-helix ([2]; Euk33/peptide molar ratio 70:1): 12.2% | β-sheet ([2]; Euk33/peptide molar ratio 70:1): 50.4% | β-turn ([2]; Euk33/peptide molar ratio 70:1): 0% | concentration at which ≥90% of bacteria are killed ([3]; denominator of TI): 20 µM | concentration at which ≥90% of eukaryotic cells are killed (estimated) ([3]; numerator of TI): ~64 µM
